Measurements as given in publication PMC5653977 (EMBO Molecular Medicine, 2017).

Key:
AKT = assay: Western blot of pAKT in prefrontal cortex of spironolactone-treated mice; type: in vivo, mouse; details: Nrg1-tg and wt mice, 50 mg/kg s.c. daily for 21 days, prefrontal cortex lysates
Experimental: (§1) For the generation of lysates, the isolated tissue was immediately placed into cooled (4°C) sucrose buffer (320 mM sucrose, 10 mM Tris–HCl, 1 mM NaHCO3, 1 mM MgCl2, supplemented with 10 mM NaF, 1 mM […], 1 mM ZnCl2, 4.5 mM Na4P20_7 as phosphatase inhibitors, and the complete protease inhibitor cocktail (Roche)), homogenized using an ultra‐turrax (IKA GmbH, Staufen, Germany), sonicated (3 pulses for 10 s), and denatured for 10 min at 70°C in LDS sample buffer.
(§2) Each blot was replicated two times.
(§3) Treatment was continued throughout the behavioral analysis period. To avoid injection‐induced stress prior to behavioral testing, mice were injected in the afternoon, after the entire cohort has completed the behavioral paradigm.

[1] = molecular target: EGFR-NTEV-tevS-GV + ERBB3-CTEV (Homo sapiens, UniProt P00533+P21860); assay: ERBB dimerization split TEV assay EGFR/ERBB3; type: cell-based; details: 10 ng/ml EGFld
Source text: Gateway recombination cloning (Life Technologies) was applied for generating plasmids. Each ORF cloned was PCR‐amplified using the Pwo proofreading DNA polymerase (Roche) and BP‐recombined into the pDONR/Zeo plasmid (Life Technologies) to yield an entry vector, which was control‐digested using BsrGI to release the insert, and sequence‐verified. The following human ORFs were cloned using cDNA image clones ordered from Source BioScience: ERBB4 transcript variant JM‐a/CYT‐1 (Accession: BC112199), PIK3R1 (BC094795), GRB2 transcript variant 1 (BC000631), SHC1 transcript variant 2 (BC014158), STAT5A (BC027036), and SRC transcription variant 1 (BC051270). For EGFR, ERBB2, and ERBB3, entry vectors were obtained from the human CCSB kinase collection available from Addgene (Johannessen et al, 2010). Entry vectors were LR‐recombined into split TEV destination vectors [either pcDNA_attR1‐ORF‐attR2‐NTEV‐tevS‐GV‐2xHA_DEST or pTag4C_attR1‐ORF‐attR2‐CTEV‐2xHA_DEST, plasmids were described in detail before (Wehr et al, 2006)] to yield expression vectors, which were control‐digested using BsrGI. The plasmids for Nrg1 type I β1a and rat Nrg1 type III β1a have been described before (Wehr et al, 2006).

Erbb4 [2] = molecular target: T1, Erbb4 (Mus musculus, UniProt Q61527); assay: Western blot of phospho-Erbb4 in prefrontal cortex of spironolactone-treated mice; type: in vivo; details: Nrg1-tg mice, 50 mg/kg s.c. daily for 21 days, prefrontal cortex lysates
T1 construct: from tissue; host or cells: prefrontal cortex of Nrg1-tg and wt mice (C57Bl/6)
Experimental: as §1, §2
Treatment was continued throughout the behavioral analysis period.

GAL4/UAS system = assay: GAL4/UAS control assay; type: cell-based; details: GV and 10×UAS-Fluc plasmids in PC12 cells
Source text: All counts (407 compounds and 96 controls) from the Nrg1‐ERBB4‐PIK3R1 split TEV compound screen were plotted against the z‐score using Mondrian, with pathway activators displaying high values and inhibitors low values. For the secondary analysis, we selected all candidates that were at least three standard deviations away from the mean. […] For the GAL4/UAS assay, GAL4‐VP16 (GV) and 10×UAS firefly luciferase (10×UAS‐Fluc) plasmids were transfected into PC12 cells. For TEV protease activity assays, a transmembrane‐localized TEV protease (TM‐TEV) was expressed in PC12 cells with a transmembrane‐localized and TEV‐cleavable GV (TM‐tevS‐GV) and the 10×UAS‐Fluc reporter. […] EGFld was applied as Nrg1 stimulus. In both control assays, the assay activity (firefly luciferase, black lines) was similar to the toxicity levels (gray lines). Data are shown as mean, a nd error bars represent SEM, n = 6. The insets depict IC50 values in μM.

PC12 cells = assay: Renilla luciferase readings as toxicity control in dose-response assay; type: cell-based; details: dose-response co-culture assay, Nrg1 type I β1a, 24 h
Source text: For our HTS‐compatible split TEV assay approach, human full‐length ERBB4‐Cyt1 was fused to the NTEV fragment, a TEV protease cleavage site (tevS) and the artificial co‐transcriptional activator Gal4‐VP16 (ERBB4‐NTEV‐tevS‐GV); human PIK3R1 was fused to the CTEV fragment (PIK3R1‐CTEV) (Fig 1A). Upon ERBB4 activation, PIK3R1 is recruited to the receptor resulting in a reconstituted protease activity that cleaves off GV. In turn, released GV translocates to the nucleus and binds to upstream activating sequences (UAS) to activate the transcription of a firefly luciferase reporter gene (Fig 1A). A constitutively expressed Renilla luciferase driven under the control of the human thymidine kinase (TK) promoter was used as control to address off‐target effects related to toxicity.

ERBB4 [3] = molecular target: ERBB4 (Homo sapiens, UniProt Q15303); assay: Western blot of ERBB4 phosphorylation in T-47D cells; details: 10 ng/ml EGFld, 10 μM compound, 5 min
Nrg1-tg and wt mice [4] = assay: Hot plate test; type: in vivo, mouse; details: 50 mg/kg s.c. daily
Experimental: (§4) For behavioral testing, age‐matched male mice (8–16 weeks) on C57Bl/6 background that constitutively overexpress the 2xHA‐tagged Nrg1 type III β1a isoform (Nrg1‐tg) under the control of the mouse Thy1.2 promoter (Velanac et al, 2012) and their wild‐type (wt) littermates as controls were used. Animals were group‐housed in the same ventilated sound‐attenuated rooms under a 12‐h light/12‐h dark schedule (lights on at 8:00 am) at an ambient temperature of 21°C with food and water available ad libitum. One week prior to experiments, mice were separated into single cages and habituated to the experimental rooms. To minimize the influence of the circadian rhythm on drug actions, the treatment groups were analyzed at balanced time points during the light phase. […] All animal experiments were conducted in accordance with NIH principles of laboratory animal care and were approved by the Government of Lower Saxony, Germany, in accordance with the German Animal Protection Law.
as §3

Nrg1-tg and wt mice [5] = assay: Prepulse inhibition (PPI); type: in vivo, mouse
Experimental: as §4, §3
The startle response was measured using a two test cabinet (SR‐LAB, San Diego Instruments) using a protocol as described in Brzózka et al (2010).

[6] = 50 mg/kg s.c. daily for 3 weeks and throughout phenotyping, vs vehicle
[7] = before vs after chronic treatment, 50 mg/kg s.c. daily

T1 sequence (Q61527 26-1308): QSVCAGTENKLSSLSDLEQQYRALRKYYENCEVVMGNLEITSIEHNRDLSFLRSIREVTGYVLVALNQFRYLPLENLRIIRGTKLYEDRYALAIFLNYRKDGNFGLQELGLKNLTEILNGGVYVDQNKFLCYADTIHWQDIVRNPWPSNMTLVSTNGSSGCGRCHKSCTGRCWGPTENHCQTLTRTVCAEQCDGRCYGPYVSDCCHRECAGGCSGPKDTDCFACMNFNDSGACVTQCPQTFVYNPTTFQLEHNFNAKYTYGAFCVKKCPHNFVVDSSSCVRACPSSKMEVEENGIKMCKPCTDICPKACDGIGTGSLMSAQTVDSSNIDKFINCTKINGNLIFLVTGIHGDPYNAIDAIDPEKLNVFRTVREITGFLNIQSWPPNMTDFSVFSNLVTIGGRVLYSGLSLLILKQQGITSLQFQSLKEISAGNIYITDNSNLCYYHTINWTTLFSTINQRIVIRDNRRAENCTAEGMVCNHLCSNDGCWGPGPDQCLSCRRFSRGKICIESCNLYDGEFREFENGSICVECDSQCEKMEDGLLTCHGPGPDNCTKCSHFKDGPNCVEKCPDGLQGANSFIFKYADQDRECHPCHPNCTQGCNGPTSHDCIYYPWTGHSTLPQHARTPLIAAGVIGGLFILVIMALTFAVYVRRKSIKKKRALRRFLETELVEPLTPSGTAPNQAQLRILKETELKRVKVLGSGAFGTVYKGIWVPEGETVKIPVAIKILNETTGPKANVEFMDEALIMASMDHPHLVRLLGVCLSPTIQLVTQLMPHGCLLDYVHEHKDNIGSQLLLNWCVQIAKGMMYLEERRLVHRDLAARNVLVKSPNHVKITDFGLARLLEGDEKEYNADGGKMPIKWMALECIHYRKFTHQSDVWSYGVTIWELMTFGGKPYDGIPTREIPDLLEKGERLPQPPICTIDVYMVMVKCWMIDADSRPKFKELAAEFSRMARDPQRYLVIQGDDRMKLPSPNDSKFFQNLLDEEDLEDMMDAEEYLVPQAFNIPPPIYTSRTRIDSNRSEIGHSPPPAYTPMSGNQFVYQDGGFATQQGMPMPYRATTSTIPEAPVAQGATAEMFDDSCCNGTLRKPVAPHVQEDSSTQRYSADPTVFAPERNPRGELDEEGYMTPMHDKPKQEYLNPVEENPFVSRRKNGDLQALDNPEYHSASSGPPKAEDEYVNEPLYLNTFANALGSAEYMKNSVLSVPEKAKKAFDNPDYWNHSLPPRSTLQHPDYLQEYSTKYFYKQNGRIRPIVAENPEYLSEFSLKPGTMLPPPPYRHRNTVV
Sequence of ERBB4 (Q15303 26-1308): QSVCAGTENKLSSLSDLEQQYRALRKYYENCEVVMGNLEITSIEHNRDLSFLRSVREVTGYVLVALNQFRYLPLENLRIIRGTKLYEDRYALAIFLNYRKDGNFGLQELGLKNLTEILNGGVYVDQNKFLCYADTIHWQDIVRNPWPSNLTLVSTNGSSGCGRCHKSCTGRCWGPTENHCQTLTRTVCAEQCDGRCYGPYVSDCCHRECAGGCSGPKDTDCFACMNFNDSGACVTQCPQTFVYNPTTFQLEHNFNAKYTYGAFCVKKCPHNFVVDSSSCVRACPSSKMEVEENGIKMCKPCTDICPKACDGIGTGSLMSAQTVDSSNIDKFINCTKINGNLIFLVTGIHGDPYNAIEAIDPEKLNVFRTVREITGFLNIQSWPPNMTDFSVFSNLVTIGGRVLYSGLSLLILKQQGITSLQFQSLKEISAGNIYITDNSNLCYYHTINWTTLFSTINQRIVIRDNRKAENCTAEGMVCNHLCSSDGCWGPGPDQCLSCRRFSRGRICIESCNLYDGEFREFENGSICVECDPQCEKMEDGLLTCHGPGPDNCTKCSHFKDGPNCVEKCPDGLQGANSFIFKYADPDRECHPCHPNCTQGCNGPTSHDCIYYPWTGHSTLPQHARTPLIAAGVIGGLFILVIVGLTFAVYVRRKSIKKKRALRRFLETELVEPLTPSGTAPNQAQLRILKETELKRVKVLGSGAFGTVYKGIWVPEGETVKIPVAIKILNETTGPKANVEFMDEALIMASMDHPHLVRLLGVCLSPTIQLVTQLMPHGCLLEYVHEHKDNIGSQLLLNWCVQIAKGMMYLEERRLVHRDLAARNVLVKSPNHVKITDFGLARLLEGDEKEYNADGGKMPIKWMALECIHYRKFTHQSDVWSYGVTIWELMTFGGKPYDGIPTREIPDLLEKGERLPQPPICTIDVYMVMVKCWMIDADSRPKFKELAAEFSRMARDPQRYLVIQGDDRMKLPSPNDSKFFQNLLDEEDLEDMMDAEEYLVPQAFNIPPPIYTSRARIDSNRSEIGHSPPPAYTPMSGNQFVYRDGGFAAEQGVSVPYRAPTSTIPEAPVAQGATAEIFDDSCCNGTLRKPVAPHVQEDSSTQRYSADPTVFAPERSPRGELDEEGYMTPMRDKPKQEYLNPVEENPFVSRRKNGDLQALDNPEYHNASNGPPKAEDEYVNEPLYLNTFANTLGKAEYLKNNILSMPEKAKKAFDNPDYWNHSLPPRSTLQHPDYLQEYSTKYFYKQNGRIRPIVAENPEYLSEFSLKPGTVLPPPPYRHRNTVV
Sequence of EGFR-NTEV-tevS-GV + ERBB3-CTEV (P00533 25-1210): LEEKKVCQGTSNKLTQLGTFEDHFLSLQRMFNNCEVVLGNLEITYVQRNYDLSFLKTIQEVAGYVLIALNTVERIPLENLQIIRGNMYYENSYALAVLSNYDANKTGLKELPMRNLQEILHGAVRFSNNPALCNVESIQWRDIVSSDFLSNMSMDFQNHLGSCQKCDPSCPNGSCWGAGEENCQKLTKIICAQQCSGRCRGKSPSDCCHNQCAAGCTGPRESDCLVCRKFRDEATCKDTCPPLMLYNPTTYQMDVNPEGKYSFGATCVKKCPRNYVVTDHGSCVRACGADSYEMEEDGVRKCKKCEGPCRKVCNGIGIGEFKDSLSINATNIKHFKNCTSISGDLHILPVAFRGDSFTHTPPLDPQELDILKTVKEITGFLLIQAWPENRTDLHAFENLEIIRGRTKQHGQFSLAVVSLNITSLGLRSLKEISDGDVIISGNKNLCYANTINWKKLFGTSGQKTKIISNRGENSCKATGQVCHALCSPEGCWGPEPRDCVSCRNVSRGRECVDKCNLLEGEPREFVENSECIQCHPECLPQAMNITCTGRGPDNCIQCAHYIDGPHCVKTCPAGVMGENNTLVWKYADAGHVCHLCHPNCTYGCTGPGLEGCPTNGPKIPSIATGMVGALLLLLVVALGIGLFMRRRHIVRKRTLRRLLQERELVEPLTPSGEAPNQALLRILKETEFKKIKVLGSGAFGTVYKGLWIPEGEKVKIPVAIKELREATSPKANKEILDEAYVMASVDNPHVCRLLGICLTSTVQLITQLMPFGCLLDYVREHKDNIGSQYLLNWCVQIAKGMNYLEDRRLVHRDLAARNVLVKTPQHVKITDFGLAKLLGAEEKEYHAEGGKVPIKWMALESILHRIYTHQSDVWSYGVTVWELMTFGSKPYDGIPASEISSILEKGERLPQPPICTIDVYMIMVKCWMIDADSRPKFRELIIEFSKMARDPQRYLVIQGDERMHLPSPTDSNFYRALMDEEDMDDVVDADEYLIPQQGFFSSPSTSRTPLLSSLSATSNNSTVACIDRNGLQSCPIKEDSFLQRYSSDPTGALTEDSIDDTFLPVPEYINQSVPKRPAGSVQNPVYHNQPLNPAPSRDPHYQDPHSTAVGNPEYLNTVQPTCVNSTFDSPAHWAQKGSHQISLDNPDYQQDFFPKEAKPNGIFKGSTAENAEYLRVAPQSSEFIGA
Sequence of EGFR-NTEV-tevS-GV + ERBB3-CTEV (P21860 20-1342): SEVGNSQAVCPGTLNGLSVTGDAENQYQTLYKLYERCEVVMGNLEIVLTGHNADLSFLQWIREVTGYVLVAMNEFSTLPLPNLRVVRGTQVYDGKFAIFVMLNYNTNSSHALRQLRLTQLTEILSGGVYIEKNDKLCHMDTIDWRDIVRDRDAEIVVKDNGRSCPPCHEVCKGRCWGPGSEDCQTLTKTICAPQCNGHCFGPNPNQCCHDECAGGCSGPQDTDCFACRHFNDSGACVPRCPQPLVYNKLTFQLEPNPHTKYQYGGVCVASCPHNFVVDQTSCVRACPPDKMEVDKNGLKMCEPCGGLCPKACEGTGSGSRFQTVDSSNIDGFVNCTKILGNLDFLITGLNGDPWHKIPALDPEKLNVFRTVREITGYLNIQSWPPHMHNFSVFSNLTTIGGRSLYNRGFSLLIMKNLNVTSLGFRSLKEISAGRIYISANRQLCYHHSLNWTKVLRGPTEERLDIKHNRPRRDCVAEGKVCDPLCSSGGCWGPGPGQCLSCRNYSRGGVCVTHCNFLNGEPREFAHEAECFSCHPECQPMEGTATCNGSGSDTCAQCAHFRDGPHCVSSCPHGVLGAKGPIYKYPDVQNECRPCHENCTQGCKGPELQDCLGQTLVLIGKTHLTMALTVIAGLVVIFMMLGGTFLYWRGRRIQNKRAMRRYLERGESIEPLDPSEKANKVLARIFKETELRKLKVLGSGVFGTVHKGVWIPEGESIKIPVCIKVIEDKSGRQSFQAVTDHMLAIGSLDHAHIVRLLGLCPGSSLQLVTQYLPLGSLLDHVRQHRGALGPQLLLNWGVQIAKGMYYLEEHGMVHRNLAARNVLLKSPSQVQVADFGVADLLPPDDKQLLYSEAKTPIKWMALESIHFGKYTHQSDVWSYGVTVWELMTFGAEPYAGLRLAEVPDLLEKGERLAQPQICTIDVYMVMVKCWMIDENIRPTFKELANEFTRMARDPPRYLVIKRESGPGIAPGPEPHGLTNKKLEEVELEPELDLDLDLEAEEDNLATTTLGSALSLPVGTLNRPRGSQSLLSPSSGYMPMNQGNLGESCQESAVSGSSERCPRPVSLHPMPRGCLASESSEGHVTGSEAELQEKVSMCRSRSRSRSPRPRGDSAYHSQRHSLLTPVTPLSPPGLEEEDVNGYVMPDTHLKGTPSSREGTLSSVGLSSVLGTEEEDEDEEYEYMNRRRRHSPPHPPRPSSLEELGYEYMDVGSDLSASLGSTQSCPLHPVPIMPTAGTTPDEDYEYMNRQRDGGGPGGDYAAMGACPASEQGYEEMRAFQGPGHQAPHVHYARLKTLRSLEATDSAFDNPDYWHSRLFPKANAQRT

With CC(=O)S[C@@H]1CC2=CC(=O)CC[C@]2(C)[C@H]2CC[C@@]3(C)[C@@H](CC[C@@]34CCC(=O)O4)[C@H]12 [Spironolactone] the “pAKT (downstream signaling)” value (AKT) was “neither modulated by Nrg1 overexpression, nor by spironolactone treatment”, the IC50 [1] was 2.81 µM and the “phospho-Erbb4 levels (p-ERBB4-Y1284 antibody)” value (Erbb4 [2]) was “robust reduction”. For the same compound, the “effect on activity of the GAL4/UAS system” value (GAL4/UAS system) was “does not affect activities of control assays”, the “toxic effects (reduced Renilla luciferase readings)” value (PC12 cells) was “marginal toxic effects at higher concentrations” and the “ERBB4 phosphorylation at Tyr1056 and Tyr1284” value (ERBB4 [3]) was “reduced phosphorylation to intermediate levels”. The “pain sensitivity (latency to the first reaction, hot plate 52°C)” value (Nrg1-tg and wt mice [4]) was “significantly decreased levels of pain sensitivity”, the “PPI in Nrg1-tg mice, four-arm study” value (Nrg1-tg and wt mice [5]; [6]) was “significantly enhanced” and the “PPI in wt mice, four-arm study” value (Nrg1-tg and wt mice [5]; [6]) was “did not influence PPI”. For the same compound, the “PPI in Nrg1-tg mice, pilot two-arm study” value (Nrg1-tg and wt mice [5]; [7]) was “significantly improved” and the “PPI in wt controls, pilot two-arm study” value (Nrg1-tg and wt mice [5]; [7]) was “had no effect”.
